Consider three compounds from US11059787B2, “Crystalline form of lenvatinib mesylate and methods thereof” (Shenzhen Bolan Pharmaceutical Co., LTD., priority 2019, dated 2021).

Structures are written as SMILES.

Series [1] in a line: in vivo. Conditions: BALB/c, mouse, po.
Series [2] can be described thus: Storage stability of the crystalline form for 15 days, compared by XRPD. In kind it is physicochemical. The conditions noted are these: stored 15 days at 8° C., 25° C., 25° C./92.5% RH, 25° C./4500 LUX and 40° C./75% RH; XRPD comparison. How it is done:
The stability of Form XI was measured after being stored for 15 days under the following conditions: 8° C., 25° C., 25° C./92.5% RH, 25° C./4500 LUX and 40° C./75% RH.

Series [3] is described as follows: Solubility in water with 1% polyvinyl alcohol. Format: physicochemical. The conditions noted are these: solids added until not completely dissolved, in suspension for 5 hours, methanesulfonate. How it is done:
The solubility of Form XI was measured as compared to the previously reported Form A and Form C in U.S. Pat. No. 7,612,208. Form XI, Form A and Form C solids were gradually added into water with 1% polyvinyl alcohol until the solids could not dissolve completely and stay in suspension for 5 hours.

Regarding `COc1cc2nccc(Oc3ccc(NC(=O)NC4CC4)c(Cl)c3)c2cc1C(N)=O.CS(=O)(=O)O` [Form XI, 4-(3-chloro-4-(cyclopropylaminocarbonyl)aminophenoxy)-7-methoxy-6-quinolinecarboxamide methanesulfonate], in series [1], the AUC(0-inf) (in general, total exposure, with the tail of the curve extrapolated) worked out at 38900 ± 11100 ng·h/mL; the Cmax (as a rule, the maximum level reached in the sampled fluid or tissue) was 11500 ± 2920 ng/mL; the Tmax – broadly, the time from dosing to the highest level – was 0.833 h; the bioavailability came to 109%. Besides, the half-life – broadly, how long it takes for the measured level to halve – in series [1] was 1.95 ± 0.04 h. The “Stability under storage conditions” value in series [2] is reported as “stable”. Besides, in series [3], the Solubility – broadly, the concentration that dissolves in the medium under given conditions – was found to be 26.65 mg/mL.

For `COc1cc2nccc(Oc3ccc(NC(=O)NC4CC4)c(Cl)c3)c2cc1C(N)=O.CS(=O)(=O)O` [Form A, 4-(3-chloro-4-(cyclopropylaminocarbonyl)aminophenoxy)-7-methoxy-6-quinolinecarboxamide methanesulfonate], the Solubility in series [3] turned out to be 11.75 mg/mL.

In series [3], `COc1cc2nccc(Oc3ccc(NC(=O)NC4CC4)c(Cl)c3)c2cc1C(N)=O.CS(=O)(=O)O` [Form C, 4-(3-chloro-4-(cyclopropylaminocarbonyl)aminophenoxy)-7-methoxy-6-quinolinecarboxamide methanesulfonate] came in with a Solubility of 16.175 mg/mL.
